Assay results taken from patent publication US10183949B2, “Pyrimidinone derivative having autotaxin-inhibitory activity” (The University of Tokyo, priority 2014, dated 2019).

These compounds were tested against T1, Human autotaxin enzyme (Homo sapiens, UniProt Q13822) (assay: Evaluation of autotaxin inhibitor, 18:0 Lyso PC / choline assay (Test Example 2)). Conditions: autotaxin inhibition, IC50 class; read-out: Inhibitor activity.
T1 construct: purchased R&D System
Assay type: biochemical
Description: Solution B containing 100 mM Tris-HCl buffer (pH7.5), 150 mM NaCl, 5 mM MgCl2, and 0.05% Triton X-100 was prepared. Human autotaxin enzyme (purchased from R&D System) was diluted with Solution B, and 2.5 μl of which was added to a solution of test compound in DMSO. Furthermore, 2.5 μl of 200 μM 18:0 Lyso PC (purchased from Avanti Polar Lipids) in Solution B was added and allowed to react at room temperature for 2 hours. After completion of the reaction, 15 μl of the coline assay reagent. (100 mM Tris-HCl buffer (pH7.5), 5 mM. MgCl2, 77 μg/ml coline oxidase, 10 μg/ml peroxydase, 25μM 10-acetyl-3,7-dihydroxyphenoxazine, and excess autotaxin inhibitor) was added and allowed to react at room temperature for 20 minutes. The fluorescent dye Resorufin, which was produced by the reaction, was detected. The fluorescence was detected using ViewLux
(PerkinElmer, Inc.) with a excitation wavelength of 531 nm and a fluorescence wavelength of 598 nm.
The percent inhibition of the test compound was calculated by assuming the sample with no test compound as 0% inhibition and the sample with no enzyme as 100% inhibition, and the percent inhibitions at different concentrations of the test compound were plotted to obtain a concentration-dependent curve.
For N#CC1(NC(=O)Cn2c(CCCC(F)(F)F)nc(N3CCC(C(F)(F)F)CC3)c(F)c2=O)CC1 [Compound I-0241], the IC50 was ≥ 1000 nM.
In the case of N#CC1(NC(=O)Cn2c3nc(cc2=O)-c2ccc(Cl)cc2NC(=O)/C=C/CCO3)CC1 [Compound I-0257], the IC50 is reported as 10 to 100 nM.
COC(=O)Cn1c(CCCC(F)(F)F)nc(-c2ccc(C(F)(F)F)cc2)cc1=O [Compound I-0254] was tested, and the IC50 was 10 to 100 nM.

Same assay, conditions: human autotaxin enzyme, 18:0 Lyso PC substrate, choline assay, room temperature 2 hours; read-out: Inhibitor activity (IC50)
O=C(NCCN1CCNC1=O)c1cccc(Cn2c(CCCC(F)(F)F)nc(-c3ccc(Cl)cc3)cc2=O)c1 [Compound I-0171] gave an IC50 of 100 to 1000 nM.
CCCCCc1nc(-c2ccc(Cl)cc2)cc(=O)n1CC(=O)N1CCOCC1 [Compound I-0084] gave an IC50 of 10 to 100 nM.
Cc1nonc1CNC(=O)c1cccc(Cn2c(CCCC(F)(F)F)nc(-c3ccc(Cl)cc3)cc2=O)c1 [Compound I-0190] was tested, and the IC50 was 100 to 1000 nM.
Compound Cc1nc(-c2ccc(Cl)cc2NC(=O)C2CC2)cc(=O)n1CC(=O)NCC(C)(C)O [Compound I-0423] has an IC50 of 10 to 100 nM.
CCCCCc1nc(-c2ccc(Cl)cc2)cc(=O)n1CC(=O)N1CCC(c2ccccc2C(=O)O)CC1 [Compound I-0046] was tested, and the IC50 was 10 to 100 nM.
For O=C1CCN(C(=O)c2cccc(Cn3c(CCCC(F)(F)F)nc(-c4ccc(Cl)cc4)cc3=O)c2)CCN1 [Compound I-0179], the IC50 was 10 to 100 nM.
CCCCCc1nc(-c2ccc(Cl)cc2)cc(=O)n1CC(=O)NCc1ccccc1 [Compound I-0034] was tested, and the IC50 was 100 to 1000 nM.
Cc1nc(-c2ccc(Cl)cc2NC(=O)C2CC2)cc(=O)n1CC(=O)NCc1c[nH]nn1 [Compound I-0431] was tested, and the IC50 was 10 to 100 nM.
CCCCCNc1nc(-c2ccc(C(F)(F)F)cc2)cc(=O)n1Cc1cccc(C(=O)O)c1 [Compound I-0012] was tested, and the IC50 was 10 to 100 nM.
Compound O=C(NCCCO)c1cccc(Cn2c(CCCC(F)(F)F)nc(-c3ccc(Cl)cc3)cc2=O)c1 [Compound I-0163] has an IC50 of 100 to 1000 nM.
Compound CN1CNC(=O)C12CCN(C(=O)Cn1c(CCCC(F)(F)F)nc(-c3ccc(C(F)(F)F)cc3)cc1=O)CC2 [Compound I-0361] has an IC50 of 10 to 100 nM.
N#CC1(NC(=O)Cn2c(CCCC(F)(F)F)nc(-c3ccc(Cl)cc3)c(F)c2=O)CC1 [Compound I-0218] showed an IC50 of 100 to 1000 nM.
With CCCCCc1nc(-c2ccc(Cl)cc2)cc(=O)n1CC(=O)NC(CO)C(=O)O (stereo not shown) [Compound I-0052] the IC50 was < 10 nM.
For CC(=O)Nc1cc(Cl)ccc1-c1cc(=O)n(CC(=O)N2CCN(CCC(=O)c3ccc4[nH]c(=O)oc4c3)CC2)cn1 [Compound I-0499], the IC50 was 100 to 1000 nM.
Work on O=C1CC(CNC(=O)Cn2c(CCCC(F)(F)F)nc(-c3ccc(C(F)(F)F)cc3)cc2=O)CN1 (stereo not shown) [Compound I-0336] yielded an IC50 of 10 to 100 nM.
Compound O=C(Cn1c(CCCC(F)(F)F)nc(C2=CCC(C(F)(F)F)CC2)cc1=O)NCC1(CO)COC1 (stereo not shown) [Compound I-0339] has an IC50 of 10 to 100 nM.
For O=C(Cn1c(CCCC(F)(F)F)nc(-c2ccc(C(F)(F)F)cc2)cc1=O)NCCc1nnc(-c2ccccc2)o1 [Compound I-0368], the IC50 was 10 to 100 nM.
With CCCCCc1nc(-c2ccc(Cl)cc2)cc(=O)n1CC(=O)NC1(C#N)CCCCC1 [Compound I-0077] the IC50 was 100 to 1000 nM.
In the case of Cc1nc(CNC(=O)c2cccc(Cn3c(CCCC(F)(F)F)nc(-c4ccc(Cl)cc4)cc3=O)c2)no1 [Compound I-0189], the IC50 is reported as 100 to 1000 nM.
With Cc1nc(-c2ccc(Cl)cc2NC(=O)C2CC2)cc(=O)n1CC(=O)NC1(C)CC1 [Compound I-0401] the IC50 was 10 to 100 nM.
For O=C(NC(CO)CO)c1cccc(Cn2c(CCCC(F)(F)F)nc(-c3ccc(Cl)cc3)cc2=O)c1 [Compound I-0165], the IC50 was 100 to 1000 nM.
For O=C(NC(CO)c1ccccc1)c1cccc(Cn2c(CCCC(F)(F)F)nc(-c3ccc(Cl)cc3)cc2=O)c1 (stereo not shown) [Compound I-0178], the IC50 was 100 to 1000 nM.
NC(=O)CCCNC(=O)c1cccc(Cn2c(CCCC(F)(F)F)nc(-c3ccc(Cl)cc3)cc2=O)c1 [Compound I-0184] gave an IC50 of 100 to 1000 nM.
With CCCCCc1nc(-c2ccc(Cl)cc2)cc(=O)n1CC(=O)NCCN(C)C [Compound I-0032] the IC50 was 100 to 1000 nM.
In the case of CCNC(=O)N1CCC(NC(=O)Cn2c(CCCC(F)(F)F)nc(-c3ccc(Cl)cc3)cc2=O)CC1 [Compound I-0128], the IC50 is reported as 10 to 100 nM.
Compound CCCCCc1nc(-c2ccc(Cl)cc2)cc(=O)n1CC(=O)N1CCCC(c2ccc(C(=O)O)cc2)C1 (stereo not shown) [Compound I-0047] has an IC50 of 100 to 1000 nM.
In the case of Cn1c(=O)cc(-c2ccc(Cl)cc2)n(CCCC#N)c1=N [Compound I-0108], the IC50 is reported as ≥ 1000 nM.
With CCCCCOc1nc(-c2ccc(Cl)cc2)cc(=O)n1CC(=O)NC(Cc1ccccc1)C(=O)O (stereo not shown) [Compound I-0152] the IC50 was 10 to 100 nM.
CCCCCc1nc(-c2ccc(Cl)cc2)cc(=O)n1CC(=O)NC1CCOCC1 [Compound I-0086] showed an IC50 of 100 to 1000 nM.
For COC(=O)Nc1cc(C#N)ccc1-c1cc(=O)n(CC(=O)NCc2c[nH]nn2)c(C)n1 [Compound I-0414], the IC50 was < 10 nM.
For CC(C)(C)OC(=O)Cn1c(CCCC(F)(F)F)nc(-c2ccc(Cl)cc2)cc1=O [Compound I-0206], the IC50 was < 10 nM.
Work on COC(=O)Nc1cc(C#N)ccc1-c1cc(=O)n(CC(=O)NCC2(CO)CC2)c(C)n1 [Compound I-0417] yielded an IC50 of 10 to 100 nM.
CC(C)(C)N1CCN(c2cc(=O)n(CC(=O)NC3(C#N)CC3)c(CCCC(F)(F)F)n2)CC1 [Compound I-0239] was tested, and the IC50 was ≥ 1000 nM.
With CCS(=O)(=O)N1CCN(C(=O)c2cccc(Cn3cnc(-c4ccc(Cl)cc4NC(=O)C(C)(C)C)cc3=O)c2)CC1 [Compound I-0501] the IC50 was 10 to 100 nM.
Cc1nc(-c2ccc(Cl)cc2NC(=O)C2CC2)cc(=O)n1CC(=O)NC(C)(C)CF [Compound I-0424] showed an IC50 of 10 to 100 nM.
CCCCCc1nc(-c2ccc(Cl)cc2)cc(=O)n1CC(=O)NC(C(=O)O)C(C)C (stereo not shown) [Compound I-0050] was tested, and the IC50 was 100 to 1000 nM.
Work on CC(C)(C)C(=O)Nc1cc(Cl)ccc1-c1cc(=O)n(Cc2cccc(C(=O)O)c2)cn1 [Compound I-0427] yielded an IC50 of 10 to 100 nM.
In the case of COC(=O)Nc1cc(Cl)ccc1-c1cc(=O)n(CC(=O)N(C)C(C)(C)CO)c(C)n1 [Compound I-0277], the IC50 is reported as 10 to 100 nM.
Compound CCCCCc1nc(-c2ccc(Cl)cc2)cc(=O)n1CC(=O)N1[C@H](C)COC[C@@H]1C [Compound I-0095] has an IC50 of 10 to 100 nM.
With COC(=O)Nc1cc(C#N)ccc1-c1cc(=O)n(CC(=O)NC(C)(C)C)c(C)n1 [Compound I-0372] the IC50 was 10 to 100 nM.
CC1(NC(=O)c2cccc(Cn3c(CCCC(F)(F)F)nc(-c4ccc(Cl)cc4)cc3=O)c2)COC1 [Compound I-0185] showed an IC50 of 100 to 1000 nM.
CSc1nc(-c2ccc(Cl)cc2NC(=O)C(C)(C)C)cc(=O)n1CC(=O)NC1(C#N)CC1 [Compound I-0316] was tested, and the IC50 was 10 to 100 nM.
Compound Cc1nc(-c2ccc(Cl)cc2NC(=O)C2CC2)cc(=O)n1CC(=O)N1CCC(C(N)=O)CC1 [Compound I-0463] has an IC50 of 10 to 100 nM.
O=C(Cn1cnc(-c2ccc(Cl)cc2)cc1=O)NCCCCCNC(=O)c1ccc2[nH]nnc2c1 [Compound I-0476] was tested, and the IC50 was ≥ 1000 nM.
CC(C)(C)OC(=O)Cn1c(CCCC(F)(F)F)nc(-c2ccc(Cl)cc2F)cc1=O [Compound I-0284] gave an IC50 of 10 to 100 nM.
COC(=O)Nc1cc(C#N)ccc1-c1cc(=O)n(CC(=O)N2CCN(C(N)=O)CC2)c(C)n1 [Compound I-0446] was tested, and the IC50 was 10 to 100 nM.
For O=C(Cn1c(CCCC(F)(F)F)nc(-c2ccc(Cl)cc2)cc1=O)NCCN1CCNC1=O [Compound I-0121], the IC50 was 100 to 1000 nM.
With COC(=O)c1cccc(Cn2c(CCCC(F)(F)F)nc(-c3ccc(Cl)cc3)cc2=O)c1 [Compound I-0111] the IC50 was 10 to 100 nM.
In the case of Cc1nc(-c2ccc(Cl)cc2NC(=O)C2CC2)cc(=O)n1CC(=O)NC1(C)COC1 [Compound I-0419], the IC50 is reported as 10 to 100 nM.
For Cc1nc(-c2ccc(Cl)cc2NC(=O)C(C)(C)C)cc(=O)n1CC(=O)NC1(C(=N)NO)CC1 [Compound I-0380], the IC50 was 10 to 100 nM.
COC(=O)Nc1cc(Cl)ccc1-c1cc(=O)n(CC(=O)OC(C)(C)C)c(C)n1 [Compound I-0266] was tested, and the IC50 was < 10 nM.
Compound CCCCCc1nc(-c2ccc(Cl)cc2)cc(=O)n1CC(=O)N(C)Cc1ccccc1 [Compound I-0036] has an IC50 of 100 to 1000 nM.
In the case of CCOCCc1nc(-c2ccc(Cl)cc2)cc(=O)n1CC(=O)NCC(C)(C)O [Compound I-0222], the IC50 is reported as 100 to 1000 nM.
Cc1nc(-c2ccc(C#N)cc2NC(=O)C2CC2)cc(=O)n1CC(=O)NCC1(CO)COC1 [Compound I-0287] gave an IC50 of 10 to 100 nM.
Cc1nc(C2=CCC(C(F)(F)F)CC2)cc(=O)n1CC(=O)NCC1(CO)COC1 (stereo not shown) [Compound I-0268] was tested, and the IC50 was ≥ 1000 nM.
With CC(=O)NC1CCN(C(=O)Cn2c(CCCC(F)(F)F)nc(-c3ccc(C(F)(F)F)cc3)cc2=O)CC1 [Compound I-0351] the IC50 was 100 to 1000 nM.
In the case of CNS(=O)(=O)CCNC(=O)Cn1c(C)nc(-c2ccc(Cl)cc2NC(=O)OC)cc1=O [Compound I-0465], the IC50 is reported as < 10 nM.
For Cc1nc(-c2ccc(Cl)cc2NC(=O)C2CC2)cc(=O)n1CC(=O)NCC1(CO)COC1 [Compound I-0300], the IC50 was 10 to 100 nM.
Cc1nc(-c2ccc(Cl)cc2NC(=O)C(C)(C)C)cc(=O)n1CC(=O)Nc1cccnc1O [Compound I-0310] was tested, and the IC50 was 10 to 100 nM.
With CCCCCc1nc(-c2ccc(Cl)cc2)cc(=O)n1CC(=O)NCC(=O)NCC(=O)O [Compound I-0055] the IC50 was < 10 nM.
For O=C(O)c1cncc(Cn2c(CCCC(F)(F)F)nc(-c3ccc(Cl)cc3)cc2=O)c1 [Compound I-0288], the IC50 was 10 to 100 nM.
In the case of COC(=O)Nc1cc(Cl)ccc1-c1cc(=O)n(CC(=O)N2CCC(C(N)=O)CC2)c(C)n1 [Compound I-0458], the IC50 is reported as < 10 nM.
In the case of COC(=O)Nc1cc(C#N)ccc1-c1cc(=O)n(CC(=O)NCC2CNC(=O)O2)c(C)n1 (stereo not shown) [Compound I-0430], the IC50 is reported as 10 to 100 nM.
Work on COC(=O)c1cc(Cn2c(CCCC(F)(F)F)nc(-c3ccc(Cl)cc3)cc2=O)cs1 [Compound I-0313] yielded an IC50 of 100 to 1000 nM.
